We go through 1 compound from US20260144798A1, “Disruption of Vascular Smooth Muscle Relaxation by Carfilzomib May be the Primary Reason for CFZ-Induced Vascular Dysfunction” (AMGEN INC., priority 2019, published 2026).

The test system of series [1] is rat aortic rings. As to the kind of experiment: Acetylcholine-induced relaxation of phenylephrine-precontracted rat aortic rings.
Method: (§4) An isometric myograph (DMT 620M) was used for ex vivo measurement of vascular function. Eight-to 10-week old Sprague Dawley rats (purchased from Charles River Laboratories, Wilmington, MA) were first anesthetized with 3% isoflurane and then euthanized using inhaled desflurane. The aortas were isolated in an ice-cold, oxygenated (95% O2, 5% CO2) Krebs-Henseleit buffer (118.3 mM NaCl, 4.7 mM KCl, 1.2 mM MgSO4, 1.2 mM KH2PO4, 2.5 mM CaCl2, 25 mM NaHCO3, and 11.0 mM glucose; purchased from Sigma-Aldrich, St. Louis, MO). The thoracic aorta was carefully cleaned to remove perivascular fat and cut into 2-mm rings that were mounted between two stainless steel wires in the myograph chamber containing 8 mL of Krebs-Henseleit buffer in 95% O2 and 5% CO2 at 37° C. First, the rings were equilibrated in the chamber for 20 minutes, followed by a gradual increase of mechanical stretch until a final stretch of 10 mN (Newton) was reached. After an additional incubation with fresh buffer for 30 minutes, the rings were constricted with 8 mL of 80 mM KPSS (43 mM NaCl, 80 mM KCl, 2.5 mM CaCl2, 1.2 mM MgSO4, 1.2 mM KH2PO4, 25.0 mM NaHCO3, and 11.0 mM glucose) for 15 to 20 minutes, followed by 3 washes with the Krebs-Henseleit buffer until the force returned to the baseline stretch. The tension of the aortic rings was continuously measured with the Lab Chart 7 data acquisition system (ADInstruments, Colorado Springs, CO). In Some of the experiments the aortic rings were pre-treated with 100 μM N(gamma)-nitro-L-arginine methyl ester (L-NAME; Sigma-Aldrich) and 10 μM indomethacin for 10 minutes prior to the pre-incubation with CFZ (Amgen Inc.) for 2 hours. After an additional incubation with fresh buffer for 30 minutes, the rings were constricted with 8 mL of 80 mM KPSS (43 mM NaCl, 80 mM KCl, 2.5 mM CaCl2, 1.2 mM MgSO4, 1.2 mM KH2PO4, 25.0 mM NaHCO3, and 11.0 mM glucose) for 15 to 20 minutes, followed by 3 washes with the Krebs-Henseleit buffer until the force returned to the baseline stretch. The tension of the aortic rings was continuously measured with the Lab Chart 7 data acquisition system (ADInstruments, Colorado Springs, CO).
(§5) For assessment of the effect of CFZ on vascular relaxation, the pre-treated aortic rings were incubated with 1 μM PE for 20 minutes to induce contraction. For experiments involving sildenafil and tadalafil, a 10-minute pre-treatment with 30 nM of these smooth muscle relaxants was done prior to the incubation with CFZ. After reaching a stable contraction, ACh, sodium nitroprusside (SNP), nifedipine, riociguat, or cinaciguat was added to the chamber at an increasing concentration from 100 pM to 10 μM; each stepwise concentration increase was added after the response to the current concentration reached a plateau. The relaxation was continuously measured and plotted as percent relaxation normalized to the response with 1 μM PE.
(§6) Aortas were isolated from 8-10 week old CD® (Sprague Dawley) rats (from Charles River Laboratories) in an ice-cold, oxygenated (95% O2, 5% CO2) Krebs-Henseleit buffer. The aortas were then carefully cleaned to remove perivascular fat and cut into 2-mm rings that were mounted between two stainless steel wires in the myograph chamber containing 8 mL of Krebs-Henseleit buffer in 95% O2 and 5% CO2 at 37° C. Rings were stretch until a final stretch of 10 mN (Newton) was reached and incubated for 30 mins for equilibration.
Series [2] concerns isolated rabbit hearts and aortic strips. The settings on record: cited from earlier work.
The subject of series [3] is sGC-β. Nature of the series: Western blot of sGC-β in rat aortic smooth muscle cells. The series is classed as cell-based. The note with it: CFZ for more than 12 hours (FIG. 4A). On the procedure: (§1) Each cell pellet was lysed in 50 to 70 μL RIPA buffer (Cell Signaling Technology, Danvers, MA) with the Halt™ protease and phosphatase inhibitor cocktail (Thermo Fisher Scientific). Lysates were quantitated and loaded onto the Li-COR Western blot system. Antibodies specific to phosphorylated eNOS and eNOS from Thermo Fisher Scientific, anti-Guanylyl Cyclase β1 (ER-19) (Sigma-Aldrich), and β-Actin (Sigma-Aldrich) were diluted 1:1000 for Western blot. Antibodies specific to p-VASP, VASP, and GADPH-HRP were purchased from Cell Signaling Technology.

In series [4] the test system is rat aortic rings. Nature of the series: sGC activator (cinaciguat, riociguat)-induced relaxation of rat aortic rings. The settings on record: cinaciguat or riociguat (FIG. 4C). On the procedure: An isometric myograph (DMT 620M) was used for ex vivo measurement of vascular function. Eight-to 10-week old Sprague Dawley rats (purchased from Charles River Laboratories, Wilmington, MA) were first anesthetized with 3% isoflurane and then euthanized using inhaled desflurane. The aortas were isolated in an ice-cold, oxygenated (95% O2, 5% CO2) Krebs-Henseleit buffer (118.3 mM NaCl, 4.7 mM KCl, 1.2 mM MgSO4, 1.2 mM KH2PO4, 2.5 mM CaCl2, 25 mM NaHCO3, and 11.0 mM glucose; purchased from Sigma-Aldrich, St. Louis, MO). The thoracic aorta was carefully cleaned to remove perivascular fat and cut into 2-mm rings that were mounted between two stainless steel wires in the myograph chamber containing 8 mL of Krebs-Henseleit buffer in 95% O2 and 5% CO2 at 37° C. First, the rings were equilibrated in the chamber for 20 minutes, followed by a gradual increase of mechanical stretch until a final stretch of 10 mN (Newton) was reached. After an additional incubation with fresh buffer for 30 minutes, the rings were constricted with 8 mL of 80 mM KPSS (43 mM NaCl, 80 mM KCl, 2.5 mM CaCl2, 1.2 mM MgSO4, 1.2 mM KH2PO4, 25.0 mM NaHCO3, and 11.0 mM glucose) for 15 to 20 minutes, followed by 3 washes with the Krebs-Henseleit buffer until the force returned to the baseline stretch. The tension of the aortic rings was continuously measured with the Lab Chart 7 data acquisition system (ADInstruments, Colorado Springs, CO). […] The tension of the aortic rings was continuously measured with the Lab Chart 7 data acquisition system (ADInstruments, Colorado Springs, CO).
(§2) To assess the effect of CFZ on vascular contraction, the aortic rings were pre-treated with or without CFZ for 2 hours, followed by treatment with an increasing concentration of phenylephrine (PE) from 10 nM to 1 μM. […] The contraction was continuously measured and plotted as percent contraction normalized to the response of KPSS. […] The relaxation was continuously measured and plotted as percent relaxation normalized to the response with 1 μM PE.

For series [5], the system named is rat aortic rings. As to the kind of experiment: Angiotensin induced contraction (AUC) of rat aortic rings. The settings on record: LNAME+indomethacin, 2.7 μM CFZ 1.5 hour, 30 nM Angiotensin 30 min (FIG. 11).
Method: Aortas were isolated from 8-10 week old CD® (Sprague Dawley) rats (from Charles River Laboratories) in an ice-cold, oxygenated (95% O2, 5% CO2) Krebs-Henseleit buffer. The aortas were then carefully cleaned to remove perivascular fat and cut into 2-mm rings that were mounted between two stainless steel wires in the myograph chamber containing 8 mL of Krebs-Henseleit buffer in 95% O2 and 5% CO2 at 37° C. Rings were stretch until a final stretch of 10 mN (Newton) was reached and incubated for 30 mins for equilibration. The rings were constricted with 8 mL of 80 mM KPSS for 15 minutes, followed by 3 washes with the Krebs-Henseleit buffer until the force returned to the baseline stretch. The aorta were then treated for one of the following experiments: • For protein expression studies the aortic rings were pre-treated with 100 μM N(gamma)-nitro-L-arginine methyl ester (L-NAME; Sigma-Aldrich) and 10 μM indomethacin for 10 minutes prior to the pre-incubation with CFZ (Amgen Inc.) for 1.5 hours.
Following the two incubation the rings were treated with either vehicle or 2.7 μM CFZ for further 1.5 hours before addition of 30 nM Angiotensin for 30 min. Angiotensin induced transient contraction which returned to the baseline in 30 mins. Area Under the Curve (AUC) of angiotensin induced contraction was measured.
Aortic rings were incubated for 10 min with 100 μM LNAME+10 μM indomethacin (endothelium derived relaxing agents blockers) for 10 mins followed by addition of 10 μM SB 203580 (p38 inhibitor) or PF3644022 (MAPKAPK-2 inhibitor) in some rings for 10 more mins as indicated. This was followed by addition of 2.7 μM CFZ in some rings as indicated for 1.5 hour. 30 nM Angiotensin was added for 30 min. Angiotensin induced transient contraction which returned to the baseline in 30 mins.
The test system of series [6] is VASP. Nature of the series: Western blot of p-VASP (S239) in rat thoracic aortic tissue. The note with it: CFZ treatment vs vehicle control (FIG. 6A). On the procedure: Each cell pellet was lysed in 50 to 70 μL RIPA buffer (Cell Signaling Technology, Danvers, MA) with the Halt™ protease and phosphatase inhibitor cocktail (Thermo Fisher Scientific). Lysates were quantitated and loaded onto the Li-COR Western blot system. Antibodies specific to phosphorylated eNOS and eNOS from Thermo Fisher Scientific, anti-Guanylyl Cyclase β1 (ER-19) (Sigma-Aldrich), and β-Actin (Sigma-Aldrich) were diluted 1:1000 for Western blot. Antibodies specific to p-VASP, VASP, and GADPH-HRP were purchased from Cell Signaling Technology. […] The number of measurements is indicated by “n.” #denotes P<0.05 (red vs. blue).
Background: In western blotting, separated proteins are transferred to a membrane and probed.

Series [7] has as its system eNOS. As to the kind of experiment: Western blot of phosphorylated eNOS and eNOS in mouse endothelial cells. The series is classed as cell-based. The settings on record: different concentrations of CFZ (FIG. 3A). As to the method: Protein levels of eNOS were unable to be assessed in rat endothelial cells; therefore, endothelial cells from mice were used. Mouse coronary endothelial cells (Cell Biologics) at passage 7 were seeded at 50,000 cells per well with 200 μL of endothelial cell media (Cell Biologics) in 96-well plates for 24 hours at 37° C. in 5% CO2. Some cells were pretreated with 100 μM L-NAME for 1 hour before adding 10 μM ACh. Cells were further treated with 0.3, 0.9, or 2.7 μM of CFZ or its vehicle for an additional 48 hours. The supernatant was collected and the amount of NO was assessed following the manufacturer's protocol for the colorimetric Nitric Oxide Assay Kit (Abcam, Cambridge, MA).
as §1

Series [8] concerns rat aortic rings. Nature of the series: Sodium nitroprusside-induced relaxation of phenylephrine-precontracted rat aortic rings.
Method: as §4, §5, §6
The subject of series [9] is rat aortic rings. As to the kind of experiment: Vasopressor-induced contraction of rat aortic rings, myograph. On the procedure:
(§3) An isometric myograph (DMT 620M) was used for ex vivo measurement of vascular function. Eight-to 10-week old Sprague Dawley rats (purchased from Charles River Laboratories, Wilmington, MA) were first anesthetized with 3% isoflurane and then euthanized using inhaled desflurane. The aortas were isolated in an ice-cold, oxygenated (95% O2, 5% CO2) Krebs-Henseleit buffer (118.3 mM NaCl, 4.7 mM KCl, 1.2 mM MgSO4, 1.2 mM KH2PO4, 2.5 mM CaCl2, 25 mM NaHCO3, and 11.0 mM glucose; purchased from Sigma-Aldrich, St. Louis, MO). […] The tension of the aortic rings was continuously measured with the Lab Chart 7 data acquisition system (ADInstruments, Colorado Springs, CO). […]
as §2

In series [10] the test system is rat aortic rings. Nature of the series: Nifedipine-induced relaxation of rat aortic rings. The settings on record: pretreatment of aortic rings with CFZ (FIG. 2C). On the procedure: as §3, §2
The test system of series [11] is mice. The note with it: depending on dosage and administration schedule; cited from earlier work.

For the compound `CC(C)C[C@H](NC(=O)[C@H](CCc1ccccc1)NC(=O)CN1CCOCC1)C(=O)N[C@@H](Cc1ccccc1)C(=O)N[C@@H](CC(C)C)C(=O)[C@@]1(C)CO1` [CFZ, carfilzomib], in series [1] (FIG. 5B experiment, vehicle alone 1.9×10^−8), the “EC50 for ACh-induced relaxation, CFZ alone” value is reported as 7.3×10^−8. Further, in series [1] (in the presence of CFZ 2.7 μM, vehicle alone 3.2×10^−8 (FIG. 2A)), the “EC50 for ACh-induced relaxation” value is recorded as 1.4×10 ^−7. Also, the “effect on ACh-induced relaxation (percent relaxation)” value in [1] (increasing CFZ concentrations, high concentrations of ACh (FIG. 2A)) is on record as “significantly compromised”. Also, in series [2], the “coronary perfusion pressure, resting vascular tone, and spasmogenic effects” value was “increased”; the “vasodilating effect induced by acetylcholine (ACh)” value is recorded as “sharply reduced”. In series [3], the sGC-β protein level entry is on record as “increased with increasing exposure to CFZ”. The “effect on VSM relaxation in the presence of sGC activators” value in series [4] is reported as “did not interfere with VSM relaxation”. In addition, the “angiotensin induced contraction, area under the curve” value in series [5] is recorded as “increased angiotensin induced contraction”. In addition, the “level of p-VASP” value in series [6] is recorded as “reduced level of p-VASP compared with the vehicle control”. In series [7], the “level of phosphorylated eNOS” value was “increasing level of phosphorylated eNOS corresponded to the increasing CFZ concentration” and the “protein expression level of total eNOS” value is recorded as “remained the same”. Moreover, the “EC50 for SNP-induced relaxation, CFZ alone” value in [8] (FIG. 5A experiment, vehicle alone 7.2×10^−9) is 1.7×10^−8. Moreover, the “EC50 for SNP-induced relaxation in the presence of L-NAME and indomethacin” value in series [8] (in the presence of CFZ 2.7 μM, vehicle alone 1.8×10^−8) is recorded as 4.3×10^−8. For the same compound, in [8] (rings pretreated with CFZ, increasing SNP (FIG. 2B)), the “effect on SNP-induced relaxation” value is reported as “appeared to interfere with SNP-induced relaxation”. Also, the “effect on phenylephrine-induced vascular contraction” value in series [9] (CFZ 0.3, 0.9 or 2.7 μM, increasing phenylephrine (FIG. 1C)) is recorded as “No significant CFZ effect on vascular contraction”. The “effect on potassium chloride-induced vascular contraction” value in series [9] (CFZ vs vehicle, increasing potassium chloride (FIG. 1D)) is on record as “No significant CFZ effect on vascular contraction”. The “effect on vascular relaxation in the presence of nifedipine” value in series [10] is given as “did not appear to significantly affect vascular relaxation”. Further, in series [11], the “effect on AMPKα/mTORC1 and PI3K/Akt/eNOS pathways” value is “inhibit AMPKα/mTORC1 pathways”.
